The test system of data set [1] is RPP631 cells. The experiment in a line: Bulk RNA-sequencing and GSEA. The format is cell-based, mouse. The conditions noted are these: 48 hr. As to the method:
Paired-end reads were aligned to mouse mm10 genome using STAR (v2.5.2b). Reads with good mapping quality (MAPQ>30) that aligned to genomic exons were counted using featureCounts (mm10 Ensembl 93) to generate a table with counts for each gene. Differential gene expression analysis was performed using the R package DESeq2 using the lfcShrink function. […] Gene set enrichment analysis (GSEA) was performed on a list of genes ranked from high to low DESeq2 estimated fold-change using the GSEAPreRanked function with enrichment statistic classic and 1000 permutations.

For data set [2], the system named is Cyclin K, the obligate binding partner of CDK12/13. Put plainly: Competitive pulldown assay (Bio-THZ1), Cyclin K. The format is cell-based, mouse. The note with it: SCLC cells treated 6 hours. Here is the method:
Bio-THZ1 pulldown experiments followed by western blotting of enriched proteins was performed as described in Kwiatkowski, et al., Nature, 2014, 511, 616-620. Briefly, cells were treated with YKL-5-124 or DMSO for 6 hr (in vitro) or 72 hr (in vivo). Following treatment, cells were washed twice with cold PBS and then lysed in the following lysis buffer: 50 mM TrisHCI pH 8.0, 150 mM NaCl, 1% NP-40, 5 mM EDTA, 1 mM DTT, and protease/phosphatase cocktails. Following clearance, lysates were treated with biotinylated THZ1 for pulldown overnight at 4° C. Lysates were further incubated at room temperature for 3 hr to increase the efficiency of covalent bond formation. Lysates were then incubated with streptavidin agarose for pulldown for an additional 2-3 hr at 4° C. Agarose beads were washed 5 times with lysis buffer and then boiled in 2×SDS at 95° C. SDS-page resolved precipitated proteins were probed for the indicated proteins.

The test system of data set [3] is Cyclin E, A, B, D in RPP631 and DMS79. The experiment in a line: Cyclin expression (western blotting, qRT-PCR). Format: cell-based, mouse, human. The note with it: 24 hours. Here is the method: (§1) Cell pellets were collected and then subjected to total RNA extraction using RNeasy Plus Mini Kit (QIAGEN, Cat #74136) according to the manufacturer's instructions, or using TRIzol:Chloroform phase-separation by centrifugation followed by RNA precipitation using isopropanol. The extracted RNA was reversely transcribed into cDNA using the High-Capacity RNA-to-cDNA™ Kit (Thermo Fisher Scientific, Cat #4387406) according to the manufacturer's instructions. The obtained cDNA samples were diluted and used for RT-qPCR. PowerUp™ SYBR™ Green Master Mix (Thermo Fisher Scientific, Cat #A25742) or TaqMan Gene Expression Master Mix (Life Technologies, Cat #4369514). Gene specific primers with sequences listed in Table 3 were used for PCR amplification and detection on the StepOnePlus™ Real-Time PCR System (Thermo Fisher Scientific). RT-qPCR data were normalized to Actb (mouse cells) or GUSB (human cells) and presented as fold changes of gene expression in the test sample compared to the control.
Cells in culture were collected by centrifuging at 1,500 rpm and then washed with ice-cold PBS twice to completely remove residual medium. […] Protein concentrations in lysates were measured by Pierce™ BCA Protein Assay Kit (Thermo Fisher Scientific, Cat #23225) and followed by the addition of SDS loading buffer (6×) and heated at 95° C. for 5 min. […]
In general terms: Immunoblotting shows a protein as a band on a membrane.

Data set [4] is described as follows: In vivo toxicity evaluation in C57BL/6 mice. Here is the method: For evaluation of in vivo toxicity of YKL-5-124, a dose-escalating study from 2.5 mg/kg to 15 mg/kg q.d. five times/week via intraperitoneal injection (i.p.) was tested in C57BL/6 mice. In vivo toxicities including body weight and blood cell counts including platelet, red blood cells and white blood cells were monitored. Similarly, a separate cohort was used to evaluate in vivo toxicity of combining YKL-5-124 and anti-PD-1 in C57BL/6 mice. For treatment studies, mice were evaluated by MRI imaging (Preclinical Imaging Laboratory, NYULH) to quantify lung tumor burden before for randomization and after drug treatment for efficacy evaluation. Mice were treated with either vehicle and isotype IgG (Control), anti-PD-1 200 μg/mouse (clone 29F.1A12), YKL-5-124 10 mg/kg, or combined anti-PD-1 and YKL-5-124 (Combo). YKL-5-124 was administered daily from Monday to Friday, and PD-1 antibody was administered three times a week (Monday, Wednesday, and Friday). For chemotherapy, cisplatin (5 mg/kg) was given on Day 1 and etoposide (10 mg/kg) on Day 1, 2, 3 every seven days per cycle for three cycles.

Data set [5] has as its system CDK1 and CDK2 T-loop phosphorylation. The experiment in a line: Western blotting of CDK1 and CDK2 T-loop phosphorylation in SCLC lines. Format: cell-based, mouse, human. The note with it: representative panel of SCLC lines, 24 hours; 'as low as'. As to the method: Cells in culture were collected by centrifuging at 1,500 rpm and then washed with ice-cold PBS twice to completely remove residual medium. RIPA lysis buffer (Thermo Fisher Scientific, Cat #89900) supplemented with Halt™ Protease and Phosphatase Inhibitor Cocktail (Thermo Fisher Scientific, Cat #78440) was added to cell pellets to extract protein. Protein concentrations in lysates were measured by Pierce™ BCA Protein Assay Kit (Thermo Fisher Scientific, Cat #23225) and followed by the addition of SDS loading buffer (6×) and heated at 95° C. for 5 min. Equal amount of protein samples was subjected to 4-20% gradient gel SDS-PAGE and transferred to a nitrocellulose membrane (Bio-Rad, Cat #1704271). The membrane was blocked in Odyssey® Blocking Buffer (LI-COR, Cat #927-50003) at room temperature for 1 hour and incubated with appropriate antibodies at 4° C. overnight (Key Resources Table). Antibodies were diluted in TBST (TBS with 0.1% Tween) with 20% LI-COR Odyssey Blocking Buffer. On the next day, the membrane was washed with TBST (TBS with 0.1% Tween) four times and incubated with appropriate secondary antibodies (LI-COR, anti-Rabbit, Cat #925-32213; anti-Mouse, Cat #925-68072) at room temperature for 1 hour. Membranes were imaged using the LI-COR Odyssey® Imaging System.

Data set [6] relates to TNFα, CXCL9 and CXCL10 in BALF. Put plainly: Luminex analysis of murine BAL fluid. The format is in vivo, mouse. The note with it: after 7-day treatment. Here is the method:
Mouse lung bronchoalveolar lavage (BAL) was performed by intratracheal injection of 2 ml of sterile PBS followed by collection by aspiration. TNFα, CXCL9 and CXCL10 levels were measured using mouse Cytokine/Chemokine 32-plex Assay (MILLIPLEX, Millipore) on Luminex® SD system (Luminex). Concentrations (pg/ml) of each protein were derived from 5-parameter curve fitting models according to the manufacturer's instructions.

The subject of data set [7] is Tnf, Cxcl10 and Cxcl9 in RPP631. Put plainly: RT-qPCR of Tnf, Cxcl10 and Cxcl9. Format: cell-based, mouse. The conditions noted are these: after 48 hr. As to the method: as §1
For orientation: Real-time PCR tracks product formation cycle by cycle.

Where only a bound is given, the exact number is not on record here.

With `C=CC(=O)Nc1ccc(C(=O)Nc2n[nH]c3c2CN(C(=O)N[C@H](CN(C)C)c2ccccc2)C3(C)C)cc1` [YKL-5-124], in data set [1], the “expression of pro-inflammatory cytokines and chemokines incl. TNFα pathway components and Cxcl10 (heatmaps)” value is listed as “increased expression”; the “genes within GSEA terms associated with cell cycle, mitosis and E2F targets” value is “downregulated”. The “expression of SCLC SE-associated genes” value in data set [1] (compared with THZ1) is on record as “little effect”. Besides, the “'Interferon gamma response', 'TNFα signaling' and 'Inflammatory response' Hallmarks signatures (GSEA)” value in data set [1] (three of the top five) is reported as “most positively regulated”. The “block of pulldown of Cyclin K” value in data set [2] is given as “failed to block”. In data set [3], the “Cyclin E protein and mRNA (CCNE1) levels” value is listed as “increase”; the “expression of Cyclins A (CCNA1), B (CCNB1), and D (CCND1)” value was “remained unchanged”. In addition, in data set [4] (C57BL/6, mouse, in vivo, ip), the well tolerated dose entry is reported as “up to 10 mg/kg”. Also, in data set [4] (dose up to 10 mg/kg), the “body weight and blood counts” value is “no significant change”. The “concentrations robustly inhibiting CDK1 and CDK2 T-loop phosphorylation” value in data set [5] is not below 50 nM. Moreover, in data set [6], the “TNFα, CXCL9 and CXCL10 in BALF” value is recorded as “pronounced increase”. The “tumor cell expression of Tnf, Cxcl10 and Cxcl9” value in data set [7] is given as “significantly stimulated”.

These data come from US20230114207A1, “THE COMBINATION OF CYCLIN DEPENDENT KINASE 7 INHIBITOR AND IMMUNOTHERAPY FOR TREATMENT OF CANCER” (Dana-Farber Cancer Institute, Inc., priority 2019, published 2023).
